The values that follow are results of earlier work, collected in patent publication US20020044913A1, “Cosmetics to support skin metabolism” (priority 2000, published 2002).

The test system of one data set is oxidant production. The following applies: carnitine supplementation.
Data set [1] relates to carnitine-acetyl-carnitine exchange across the inner mitochondrial membrane.
Data set [2] concerns senescent myocardium (human atrial tissue and rats).
A further data set relates to apoptosis. The following applies: through its action in the mitochondria.
For data set [3] the following is noted: daily supplements of up to 200 mg for 6-12 months and 100 mg daily for up to 6 y.
In a further data set the test system is skeletal muscle. Particulars: older individuals (40-73), 20 g/day, one week.
Assay in data set [4]: not given
This is another data set of the same source.

In the next data set the test system is aged rats. Particulars: supplementation.

Molecules are shown by their SMILES. Where two headings read alike, the source gives them in different places.

For the molecule `C[N+](C)(C)CC(O)CC(=O)[O-]` (stereo not shown) [carnitine], in the data set on oxidant production, the cell antioxidants result is listed as “decreased cell antioxidants markedly” and the “increase in oxidant production” value is listed as 30%.
For the molecule `C[N+](C)(C)C[C@H](O)CC(=O)[O-]` [L-carnitine], in data set [1], the “age-associated decrease in mtDNA transcription” value was “reverse”, the “age-related decrease in cardiolipin” value is on record as “reverse the age-related decrease in cardiolipin”, the “age-related decrease of carnitine-acetyl-carnitine exchange activity” value is given as “slow or reverse this age-related dysfunction” and the decreased membrane potential result is given as “reverse”.
As for `COC1=C(OC)C(=O)C(C/C=C(\C)CC/C=C(\C)CC/C=C(\C)CC/C=C(\C)CC/C=C(\C)CC/C=C(\C)CC/C=C(\C)CC/C=C(\C)CC/C=C(\C)CCC=C(C)C)=C(C)C1=O` [Q10, Coenzyme Q10], the “tolerance of senescent myocardium to aerobic and ischemic stress” value in data set [2] (human atrial tissue and rats) is reported as “improves the tolerance”. Besides, in [2] (older vs younger hearts), the “recovery of function in older hearts” value is listed as “corrected the age-specific diminished recovery of function in older hearts”. The benefit of supplementation result (older Finnish men, 100 mg/day) is recorded as “obtained benefit”. The clinical improvement entry (woman deficient in Q10, 150 mg/kg) is “rapidly improved”. For the same molecule, the “programmed cell death (apoptosis)” value in the data set with apoptosis is recorded as “appears to block programmed cell death”. Also, the adverse effects entry in data set [3] is on record as “No important adverse effects”.
`CC(=O)O[C@H](CC(=O)[O-])C[N+](C)(C)C` [acetyl-L-carnitine]: in data set [1], the “age-associated decrease in mtDNA transcription” value is “reverse”, the “age-related decrease in cardiolipin” value is given as “reverse the age-related decrease in cardiolipin”, the “age-related decrease of carnitine-acetyl-carnitine exchange activity” value was “slow or reverse this age-related dysfunction” and the decreased membrane potential result was “reverse”.
As for `CN(CC(=O)O)C(=N)N` [creatine], the “skeletal muscle strength and endurance” value in the data set with skeletal muscle was “Increased skeletal muscle strength and endurance”. In addition, in data set [4] (1.5 g-25 g/day for period of at least a year), the safety entry is “safe”. Besides, the adverse effects entry in data set [4] (athletes, doses up to 75 grams a day for years) is given as “without known adverse effects, aside from weight gain”.
With `COc1c(O)c(C)c(C/C=C(\C)CC/C=C(\C)CC/C=C(\C)CC/C=C(\C)CC/C=C(\C)CC/C=C(\C)CC/C=C(\C)CC/C=C(\C)CC/C=C(\C)CCC=C(C)C)c(O)c1OC` [ubiquinol-10], the “oxidative damage to DNA” value in the data set on human lymphocytes is reported as “appears to protect human lymphocytes from oxidative damage to DNA”.
Take `O=C(O)CCCC[C@@H]1CCSS1` [R-α-lipoic acid]: in the data set with aged rats, the “age-related decline in mitochondrial membrane potential” value is given as “restore the age-related decline in mitochondrial membrane potential”; the “age-related decrease in oxygen consumption” value is “reverse the age-related decrease in oxygen consumption”; the “age-related increase in oxidants” value was “significantly lower”; the “glutathione and ascorbic acid levels” value is “restore glutathione and ascorbic acid levels to youthful levels”. In addition, the “ambulatory activity of aged rats” value with aged rats (aged rats) is recorded as “triple”.
